Measurements from patent US5221606A, “Reagent and kit for enzyme assay comprising a substrate consonant with given enzyme to be assayed” (King's College London, priority 1987, dated 1993).

Legend:
[1] = test system: carboxyesterase; assay: substrate test with carboxyesterase; format: biochemical
Protocol: The serum samples were diluted by a factor of 10 prior to the assay. The substrate solution and the diluted sera were then preincubated at 37° C. in a water bath. Aliquots (0.75 ml) of the substrate solution were then pipetted into small plastic tubes (2 ml capacity), and 0.05 ml samples of the sera were added to each of the substrate aliquots and shaken vigorously to ensure adequate mixing. A blank was run by substituting water (0.05 ml) for the serum. The reaction was stopped after 10 min by the addition of the stopping buffer (0.25 ml) [prepared by dissolving DABCO (22.4 g) in water (200 ml) and adjusting the pH to 10 by the addition of a little conc. hydrochloric acid. The resulting mixture was then made up to 1000 ml with acetone]. […] [formula] where t=time of incubation in hours
Otherwise it was carried out in exactly the same ways as above

[2] = solubility in water or aqueous buffer
[3] = test system: N-acetyl-β-D-glucosaminidase (NAGase); assay: substrate test with N-acetyl-β-D-glucosaminidase; format: biochemical
Protocol: METHOD. The MIXTURE A is dissolved in 10 ml of distilled water to give SOLUTION A. The solution should be allowed to stand in a thermostatically controlled bath at 37° C., and then 0.75 ml of the solution is added to a series of suitable tubes of 2 ml capacity. To these tubes is added, with vigorous stirring, […] aliquots of the urines under examination, and a blank is prepared by adding 0.05 ml of distilled water rather than urine to one of the tubes. The tubes are then incubate for a set length of time (preferably 30 min), after which 0.25 ml of the STOPPING BUFFER is added to each tube and the absorption (A) at 505 nm is determined for each sample, and adjusted for the value of the blank.
The enzyme activity of the enzyme in each sample is given by the expression using and εmax =42,000. [formula] where t=time of incubation in hours

[4] = stability on storage; format: physicochemical
[5] = test system: lipases; assay: substrate test with lipases; format: biochemical
[6] = test system: alkaline phosphatase; assay: substrate test with alkaline phosphatase; format: biochemical
[7] = test system: esterases; assay: substrate test with esterases; format: biochemical

For “2-[2-(4-Benzoyloxy-3-methoxyphenyl)-vinyl-1-methylquinolinium iodide [21e]”, which “quality as substrate for / cleavage by carboxyesterase” value (shortened to “quality as substrate for / cleavage”) [1] is on record?
The value was “readily cleaved”.

Which “quality as substrate for / cleavage” value [1] does the source give for `CCC(=O)Oc1ccc(C=C2SC(=S)NC2=O)cc1OC` [3d, n=1, 5-(4-propanoyloxy-3-methoxyphenylmethylene)-2-thioxothiazolidin-4-one] here?
Its value is “cleaved by carboxyesterase”.

And the “solubility in water” value ([2]; water)?
Its value is “slightly soluble in water”.

What does the source list for `COc1cc(C=C2SC(=S)N(CC(=O)O)C2=O)ccc1O[C@@H]1O[C@H](CO)[C@@H](O)[C@H](O)[C@H]1NC(C)=O` [4b]?
quality as substrate for NAGase [3]: excellent substrate; Km ([3]; substrate for NAGase): 980 µM; solubility ([2]; water): ≤ 10000 µM

Which results are given for `COc1cc(C=C2SC(=S)N(CC(=O)O)C2=O)cc(OC)c1O[C@@H]1O[C@H](CO)[C@@H](O)[C@H](O)[C@H]1NC(C)=O` [11b]?
quality as substrate for NAGase [3]: fair substrate; solubility in water ([2]; water): soluble in water

What does the source list for `CCCC(=O)Oc1c(OC)cc(C=C2SC(=S)N(CC(=O)O)C2=O)cc1OC` [11d, n=2, 5-(Butanoyloxy-3,5-dimethoxyphenylmethylene)-2-thioxothiazolidin-4-one-3-ethanoic acid]?
quality as substrate for / cleavage by carboxyesterase [1]: readily cleaved; stability on standing ([4]; potassium salt compared with free acid): slowly decomposed on standing; solubility in alkaline buffers ([2]; alkaline buffers (pH 8 etc.)): readily dissolved; solubility ([2]; water or aqueous buffer, aqueous buffer): > 2000 µM

For `CCCCCCCCCC(=O)Oc1c(OC)cc(C=C2SC(=S)N(CC(=O)O)C2=O)cc1OC` [11d, n=8], which “activity as substrate for lipase” value [5] is on record?
Its value is “good substrate”.

With `COc1cc(C=C2SC(=S)N(CC(=O)O)C2=O)cc(OC)c1OC(=O)c1ccccc1` [11e] as the compound, how does the “quality as substrate for / cleavage” value [1] read?
Its value is “excellent substrate”.

With `CCC(=O)Oc1c(OC)cc(C=C2SC(=S)N(c3ccc(C(=O)O)cc3)C2=O)cc1OC` [13d, n=1, 3-(4-carboxyphenyl)-5-(3,5-dimethoxy-4-propanoyloxyphenylmethylene)-2-thioxothiazolidin-4-one] as the compound, how does the “quality as substrate for / cleavage” value [1] read?
The value was “reacted with carboxyesterase”.

With `COc1cc(C=C2SC(=S)N(c3ccc(S(=O)(=O)O)cc3)C2=O)cc(OC)c1OC(=O)c1ccccc1` [14e, Potassium 5-(4-benzoyloxy-3,5-dimethoxyphenylmethylene) -2-thioxothiazolidin-4-one-3-(phenyl-4-sulphonate)] as the compound, how does the “quality as substrate for / cleavage” value [1] read?
Its value is “hydrolysed by carboxyesterase”.

Which “quality as substrate for NAGase” value [3] does the source give for `COc1cc(/C=C/c2ccc3ccccc3[n+]2C)ccc1O[C@@H]1O[C@H](CO)[C@@H](O)[C@H](O)[C@H]1NC(C)=O` [21b, 2-{2-[4-(2-Acetamido-2-deoxy-β-D-glucopyranosyloxy)-3-methoxyphenyl]-vinyl}-1-methylquinolinium iodide] here?
The value was “substrate”.

With `COc1cc(/C=C/c2ccc3ccccc3[n+]2C)ccc1OP(=O)(O)O` [21f, 2-[2-(4-phosphoroyloxy-3-methoxyphenyl)-vinyl]-1-methylquinolinium iodide] as the compound, how does the “quality as substrate for / hydrolysis by alkaline phosphatase” value (shortened to “quality as substrate for / hydrolysis”) [6] read?
The value was “reacted rapidly”.

And the stability in storage [4]?
Its stability in storage is “rather unstable in storage”.

And the “solubility in water” value ([2]; water)?
The value was “very soluble in water”.

For `COc1cc(/C=C/c2cc[n+](C)c3ccccc23)ccc1O[C@@H]1O[C@H](CO)[C@@H](O)[C@H](O)[C@H]1NC(C)=O` [23b, 4-{2-[4-(2-acetamido-2-deoxy-β-D-glucopyranosyloxy)-3-methoxyphenyl]-vinyl}-1-methylquinolinium iodide], which “quality as substrate for NAGase” value [3] is on record?
The value was “fair substrate”.

And the “solubility in water” value ([2]; water)?
Its value is “good water solubility”.

Which “activity as substrate for esterases” value [7] does the source give for `COc1cc(/C=C/c2cc[n+](C)c3ccccc23)cc(OC)c1OC(=O)c1ccccc1` [24e, 4-[2(4-Benzoyloxy-3,5-dimethoxyphenyl)-vinyl]-1-methylquinolinium iodide] here?
Its value is “substrate for esterases”.

What about the solubility ([2]; water) of the same compound?
Its solubility is < 250 µM.

With `CCC[n+]1ccc(/C=C/c2cc(OC)c(OP(=O)([O-])O)c(OC)c2)c2ccccc21` [25f, 4-[2-(4-Phosphoroyloxy-3,5-dimethoxyphenyl)-vinyl]-1-propylquinolinium] as the compound, how does the “quality as substrate for / hydrolysis” value [6] read?
Its value is “excellent substrate”.

What about the Km ([6]; alkaline phosphatase, unit inferred) of the same compound?
Its Km is 176 µM.

And the “% of vmax achieved” value ([6]; at a concentration of 1 mM)?
The value was 86%.

And the “solubility in water” value ([2]; water)?
Its value is “water soluble”.

For `CCN1C(=O)C(=Cc2ccc(OP(=O)(O)O)c(OC)c2)C(=O)N(CC)C1=S` [27f], which “quality as substrate for / hydrolysis” value [6] is on record?
The value was “cleaved by alkaline phosphatase”.

And the “solubility in water” value ([2]; water)?
The value was “good solubility”.

Which “quality as substrate for / cleavage” value [1] does the source give for `CCC(=O)Oc1c(OC)cc(C=C2C(=O)NC(=S)NC2=O)cc1OC` [28d, n=1, 4,6-dioxo-5-(4-propanoyloxy-3,5-dimethoxyphenylmethylene)-2-thioxo-1,3-diazacyclohexane] here?
The value was “poor-to-moderate substrate”.

What about the “solubility in water” value ([2]; water) of the same compound?
The value was “not particularly good”.

For `COc1cc(C=C2C(=O)N(c3ccc(S(=O)(=O)O)cc3)N=C2C)cc(OC)c1OC(=O)c1ccccc1` [29e, Potassium 1-(benzene-4-sulfonate)-4-(4-Benzolyloxy-3,5-dimethoxyphenylmethylene)-3-methyl-5-pyrazalone], which “quality as substrate for / cleavage” value [1] is on record?
The value was “substrate for carboxyesterase”.

Which “activity as substrate for lipase” value [5] does the source give for `CCCCCCCCC(=O)Oc1c(OC)cc(C=C2SC(=S)N(c3ccc(C(=O)O)cc3)C2=O)cc1OC` [Nonanoate] here?
Its value is “exhibited enzymatic activity”.

With `COc1cc(C=CC=C2SC(=S)N(CC(=O)O)C2=O)ccc1OC(C)=O` [compound 30, Piperidinium 5-[3-(4'-ethanoyloxy-3'-methoxyphenyl)-prop-2-enylidene]-2-thioxothiazolidin-4-one-3-ethanoate] as the compound, how does the “quality as substrate for / cleavage” value [1] read?
Its value is “hydrolysed”.
